According to ChEMBL document CHEMBL6083277, “Discovery of SZJK-0421: A Novel Potent, Low Toxicity, Selective Second Generation of CRM1 Inhibitor for the Treatment of Both Hematological and Solid Tumors” (J Med Chem, 2024):
Active and inactive are the calls of the source. The calls are words filed in the database; no cut-off is given here.

Legend:
[1] = system: KMS-11; experiment: Antiproliferative activity against human KMS-11 cells assessed as inhibition of cell growth incubated for 72 hrs by celltiter-glo assay; type: functional, cell-based; details: KMS-11, 72 h
[2] = Antiproliferative activity against human ARP-1 cells assessed as inhibition of cell growth incubated for 72 hrs by celltiter-glo assay; type: functional, cell-based; details: ARP-1, 72 h
[3] = system: LAMA-84; experiment: Antiproliferative activity against human LAMA-84 cells assessed as inhibition of cell growth incubated for 72 hrs by celltiter-glo assay; type: functional, cell-based; details: LAMA-84, 72 h
[4] = system: MOLM-13; experiment: Antiproliferative activity against human MOLM-13 cells assessed as inhibition of cell growth incubated for 72 hrs by celltiter-glo assay; type: functional, cell-based; details: MOLM-13, 72 h
[5] = system: SW872; experiment: Antiproliferative activity against human SW872 cells assessed as inhibition of cell growth incubated for 72 hrs by celltiter-glo assay; type: functional, cell-based; details: SW872, 72 h
[6] = molecular target: T1, Ran-specific GTPase-activating protein (Homo sapiens, UniProt P43487); experiment: Inhibition of RANBP1 nuclear export in human U2OS cells assessed as increase in fluorescence intensity at 100 uM measured for 15 mins by DAPI staining based fluorescence microscopic analysis; type: cell-based
[7] = molecular target: T1, Ran-specific GTPase-activating protein; experiment: Inhibition of RANBP1 nuclear export in human U2OS cells assessed as increase in fluorescence intensity measured for 15 mins by DAPI staining based fluorescence microscopic analysis; type: cell-based
[8] = molecular target: Exportin-1 (Homo sapiens) (UniProt O14980); experiment: Competitive inhibition of human recombinant CRM1 at 2 uM incubated for 2 hrs in presence of 3-(1-((E)-3-(methoxyamino)-3-oxo-2-(pyrimidin-5-yl)prop-1-en-1-yl)-1H-1,2,4-triazol-3-yl)-5-(trifluoromethyl)phenyl 3-(5-((3aS,4S,6aR)-2-oxohexahydro-1H-thieno[3,4-d]imidazol-4-yl)pentanamido)propanoate by pull down based Western blot analysis
[9] = system: MM1.S; experiment: Inhibition of CRM1 protein expression in human MM1.S cells at 0.25 to 1.25 uM by Western blot analysis; type: functional, cell-based; details: dose 0.25-1.25 µM, time 2-24 hrs
[10] = system: MM1.S; experiment: Induction of apoptosis in human MM1.S cells assessed as increase in cleaved caspase level at 0.5 to 1 uM incubated for 48 hrs by Western blot analysis; type: functional, cell-based; details: dose 0.5-1 µM
[11] = molecular target: Exportin-1 (Homo sapiens) (UniProt O14980); experiment: Inhibition of CRM1 in human MM1.S cells assessed as accumulation of IkappaB protein level at 0.5 to 1 uM incubated for 24 hrs by Western blot analysis; type: cell-based; details: dose 0.5-1 µM
[12] = Metabolic stability in mouse liver microsomes assessed as half life measured upto 60 mins in presence of NADPH by LC/MS-MS analysis; type: ADME, Microsome
[13] = Metabolic stability in rat liver microsomes assessed as half life measured upto 60 mins in presence of NADPH by LC/MS-MS analysis; type: ADME, Microsome
[14] = Metabolic stability in dog liver microsomes assessed as half life measured upto 60 mins in presence of NADPH by LC/MS-MS analysis; type: ADME, Canis lupus familiaris, Microsome
[15] = Metabolic stability in monkey liver microsomes assessed as half life measured upto 60 mins in presence of NADPH by LC/MS-MS analysis; type: ADME, Macaca mulatta, Microsome; details: rhesus monkey
[16] = Metabolic stability in mouse liver microsomes assessed as intrinsic clearance measured upto 60 mins in presence of NADPH by LC/MS-MS analysis; type: ADME, Microsome; details: read-out: CLH
[17] = Metabolic stability in dog liver microsomes assessed as intrinsic clearance measured upto 60 mins in presence of NADPH by LC/MS-MS analysis; type: ADME, Canis lupus familiaris, Microsome; details: read-out: CLH
[18] = Half life in male Sprague-Dawley rat at 10 mg/kg, po measured upto 30 hrs by LC-MS/MS analysis; type: ADME, organism-based; details: in vivo
[19] = Half life in male Sprague-Dawley rat at 15 mg/kg, po measured upto 30 hrs by LC-MS/MS analysis; type: ADME, organism-based; details: in vivo
[20] = Cmax in male Sprague-Dawley rat at 15 mg/kg, po measured upto 30 hrs by LC-MS/MS analysis; type: ADME, organism-based; details: in vivo
[21] = Cmax in male Sprague-Dawley rat at 30 mg/kg, po measured upto 30 hrs by LC-MS/MS analysis; type: ADME, organism-based; details: in vivo
[22] = Tmax in male Sprague-Dawley rat at 10 mg/kg, po measured upto 30 hrs by LC-MS/MS analysis; type: ADME, organism-based; details: in vivo
[23] = AUC (0 to t) in male Sprague-Dawley rat at 2 mg/kg, iv measured upto 30 hrs by LC-MS/MS analysis; type: ADME, organism-based; details: in vivo
[24] = AUC (0 to t) in male Sprague-Dawley rat at 10 mg/kg, po measured upto 30 hrs by LC-MS/MS analysis; type: ADME, organism-based; details: in vivo
[25] = AUC (0 to t) in male Sprague-Dawley rat at 30 mg/kg, po measured upto 30 hrs by LC-MS/MS analysis; type: ADME, organism-based; details: in vivo
[26] = AUC (0 to infinity) in male Sprague-Dawley rat at 2 mg/kg, iv measured upto 30 hrs by LC-MS/MS analysis; type: ADME, organism-based; details: in vivo
[27] = AUC (0 to infinity) in male Sprague-Dawley rat at 15 mg/kg, po measured upto 30 hrs by LC-MS/MS analysis; type: ADME, organism-based; details: in vivo
[28] = Oral bioavailability in male Sprague-Dawley rat at 30 mg/kg measured upto 30 hrs by LC-MS/MS analysis; type: ADME, organism-based; details: in vivo
[29] = Toxicity in Sprague-Dawley rat at 30 mg/kg, po measured upto 48 hrs; type: organism-based; details: in vivo
[30] = Toxicity in BALB/c mouse assessed as shortened intestine at 90 to 120 mg/kg, po administered once daily for 21 days; type: organism-based; details: in vivo, 504 h, dose 90-120 mg/kg, time 21 day
[31] = Toxicity in BALB/c mouse assessed as shortened intestinal tract at 90 to 120 mg/kg, po administered once daily for 21 days; type: organism-based; details: in vivo, 504 h, dose 90-120 mg/kg, time 21 day
[32] = system: MM1.S; experiment: Antitumor activity against human MM1.S cells xenografted in NOD-SCID mouse assessed as tumor growth inhibition at 15 mg/kg, po qd measured upto 21 days; type: functional; details: 504 h, time <= 21 day, read-out: TGI
[33] = system: ARH-77; experiment: Antitumor activity against human ARH-77 cells xenografted in NOD-SCID mouse at 15 to 60 mg/kg, po measured every 2 days for 21 days; type: functional, organism-based; details: dose 15-60 mg/kg, time 21.0 day
[34] = Toxicity in NOD-SCID mouse implanted with human ARH-77 cells assessed as change in body weight at 15 to 60 mg/kg, po measured every 2 days for 21 days; type: organism-based; details: in vivo, 504 h, dose 15-60 mg/kg, time 21 day
[35] = system: HCT-116; experiment: Antitumor activity against human HCT-116 cells xenografted in NOD-SCID mouse assessed as tumor growth inhibition at 60 mg/kg, po measured every 2 days for 21 days; type: functional, organism-based; details: time 21.0 day
[36] = Toxicity in NOD-SCID mouse assessed as reduction in intact nuclei in tumor at 60 mg/kg, po measured every 2 days for 21 days by H and E staining based analysis; type: organism-based; details: in vivo, 504 h, time 21 day
[37] = Toxicity in NOD-SCID mouse assessed as loss of crypt depth in intestine at 15 to 60 mg/kg, po measured every 2 days for 21 days by H and E staining based analysis; type: organism-based; details: in vivo, 504 h, dose 15-60 mg/kg, time 21 day
[38] = Toxicity in NOD-SCID mouse assessed as decrease in villus height to crypt depth ratio at 15 to 60 mg/kg, po measured every 2 days for 21 days by H and E staining based analysis; type: organism-based; details: in vivo, 504 h, dose 15-60 mg/kg, time 21 day

Chain of Exportin-1 (Homo sapiens) (O14980 whole entry): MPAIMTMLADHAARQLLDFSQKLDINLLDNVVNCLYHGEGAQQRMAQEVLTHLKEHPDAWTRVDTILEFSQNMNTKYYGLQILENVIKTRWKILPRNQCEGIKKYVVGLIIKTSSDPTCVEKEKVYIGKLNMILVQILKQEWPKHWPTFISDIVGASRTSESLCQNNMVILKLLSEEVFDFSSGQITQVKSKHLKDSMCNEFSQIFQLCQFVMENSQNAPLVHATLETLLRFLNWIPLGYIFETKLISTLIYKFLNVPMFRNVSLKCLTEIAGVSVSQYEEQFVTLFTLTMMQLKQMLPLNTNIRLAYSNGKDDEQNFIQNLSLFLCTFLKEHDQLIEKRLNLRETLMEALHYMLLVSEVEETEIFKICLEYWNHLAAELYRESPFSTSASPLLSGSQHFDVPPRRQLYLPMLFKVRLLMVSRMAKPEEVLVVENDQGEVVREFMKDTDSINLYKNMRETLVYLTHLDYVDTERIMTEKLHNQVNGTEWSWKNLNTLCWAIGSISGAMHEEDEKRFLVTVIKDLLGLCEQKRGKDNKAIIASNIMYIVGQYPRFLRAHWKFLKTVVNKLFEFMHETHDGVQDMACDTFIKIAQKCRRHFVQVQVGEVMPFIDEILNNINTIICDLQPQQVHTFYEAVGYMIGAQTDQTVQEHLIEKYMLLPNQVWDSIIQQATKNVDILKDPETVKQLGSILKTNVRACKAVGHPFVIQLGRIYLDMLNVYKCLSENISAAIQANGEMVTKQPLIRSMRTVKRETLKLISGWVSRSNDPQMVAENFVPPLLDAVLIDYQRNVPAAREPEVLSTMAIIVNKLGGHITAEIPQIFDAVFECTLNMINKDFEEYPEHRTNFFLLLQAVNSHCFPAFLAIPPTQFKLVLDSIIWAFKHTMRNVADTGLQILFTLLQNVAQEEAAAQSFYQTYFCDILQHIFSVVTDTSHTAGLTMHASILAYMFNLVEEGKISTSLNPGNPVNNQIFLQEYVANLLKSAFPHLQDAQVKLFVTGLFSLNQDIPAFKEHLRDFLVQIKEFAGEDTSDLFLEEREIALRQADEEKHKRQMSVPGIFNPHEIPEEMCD
T1 sequence (P43487 whole entry): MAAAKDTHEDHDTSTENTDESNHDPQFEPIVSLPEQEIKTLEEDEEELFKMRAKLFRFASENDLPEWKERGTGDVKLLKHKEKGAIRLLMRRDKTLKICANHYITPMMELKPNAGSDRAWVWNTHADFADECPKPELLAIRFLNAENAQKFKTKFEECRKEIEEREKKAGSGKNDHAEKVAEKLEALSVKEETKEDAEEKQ

Compound: CONC(=O)/C(=C/n1cnc(-c2cc(C(F)(F)F)cc(C(F)(F)F)c2)n1)c1cncnc1
- IC50 [1]: 739 nM
- IC50 [2]: 652 nM
- IC50 [3]: 1480 nM
- IC50 [4]: 478 nM
- IC50 [5]: 753 nM
- inhibition [6]: Active
- IC50 [7]: 620 nM
- inhibition [8]: Active
- inhibition [9]: Time-dependent-effect
- Activity [10]: Active
- Activity [11]: Active
- half-life [12]: > 120 min
- half-life [13]: > 120 min
- half-life [14]: > 120 min
- half-life [15]: > 120 min
- microsomal CLint [16]: 12.6 µL/min/mg
- microsomal CLint [17]: 2.6 µL/min/mg
- half-life [18]: 336 min
- half-life [19]: 240 min
- Cmax [20]: 793 ng/mL
- Cmax [21]: 844 ng/mL
- Tmax [22]: 18 min
- AUC(0-t) at 30 h [23]: 1300 ng·h/mL
- AUC(0-t) at 30 h [24]: 3610 ng·h/mL
- AUC(0-t) at 30 h [25]: 9000 ng·h/mL
- AUC(0-inf) [26]: 1490 ng·h/mL
- AUC(0-inf) [27]: 5830 ng·h/mL
- bioavailability [28]: 46.3%
- Activity [29]: Non-toxic
- Activity [30]: Non-toxic
- Activity [31]: Non-toxic
- inhibition in vivo at 15 mg/kg [32]: 80.5%
- Activity [33]: Active
- Activity [34]: Toxic
- TGI [35]: Active
- Activity [36]: Non-toxic
- Activity [37]: Non-toxic
- Activity [38]: Non-toxic
